The conditions of data set [1]: Schachter et al., 2005; cited from earlier work.
Data set [2] deals with cisplatin-induced hearing loss in patients with head and neck cancer. Description: Clinical hearing status (PTA of 1, 2 and 4 kHz) at follow-up after cisplatin therapy. Type of data set: in vivo, human. The following applies: post-cisplatin therapy.
In data set [3] the test system is cytochrome P(450) enzymes. The following applies: Schachter et al., 2005; cited from earlier work.
The conditions of data set [4]: compared with lipophilic agents; Schachter et al., 2005; cited from earlier work.
Data set [5] relates to low-density lipoprotein cholesterol. The following applies: clinical studies, comparison among statins; cited from earlier work.
The subject of data set [6] is cisplatin-induced hearing loss in patients with head and neck cancer. The following applies: in vivo.
Data set [7] has the same test system. Particulars: in vivo. From the text:
The primary outcome measure was the difference in incidence of a change in hearing between the baseline hearing test and the post-treatment hearing test, per ear, as defined by established ototoxicity grading scales. These scales report subjects who transition from normal hearing to hearing loss as well as those who transition from some hearing loss to more hearing loss. The criteria of two different grading scales was applied to the dataset (Table 4). The NCI CTCAEv5.0(34) classifies adverse changes in hearing based on auditory threshold shifts across a 1-8 KHz frequency range. TUNE ototoxicity grading criteria (Theunissen et al., 2014), which incorporate extended high frequency (EHF) data was also applied (see Table 5, FIG. 5).
Changes in hearing were primarily defined using CTCAEv5.0 criteria (Theunissen et al., 2014). However, cisplatin-induced ototoxicity is characterized initially as a high frequency (above 8 kHz) hearing loss that can spread to include lower frequencies (Brock et al., 1991). Therefore, the TUNE grading scale (Theunissen et al., 2014) was applied, which reports incidence and severity of hearing loss based on shifts in auditory thresholds across two frequency ranges: 1-4 kHz and 8-12.5 kHz (Table 4). The higher-frequency range of the TUNE scale was modified to include 6, 8 and 12.5 kHz due to insufficient data at 10 kHz in the dataset. Because many of the subjects had some hearing loss at baseline, the TUNE criteria was further modified so that Grades 3 and 4 utilized threshold shift data instead of absolute thresholds. A TUNE Grade 3 was redefined for this study as a ≥35 dB PTA threshold shift from the baseline to the post-treatment audiogram, and similarly Grade 4 was redefined as a ≥50 dB PTA threshold shift.
Changes in hearing, defined by TUNE criteria, were analyzed using categorical incidence (per ear) data. The incidence and severity distribution of a clinically meaningful hearing change, per ear, relative to statin use was analyzed using chi-square analyses (SAS PROC FREQ procedure). […] A logistic regression analysis (SAS PROC LOGISTIC procedure) with calculation of odds ratios and 95% confidence intervals was performed to identify associations between TUNE-defined changes in hearing and statin use after adjustment for significant covariates.
The source holds these as a separate data set.

As for `CC(C)c1nc(N(C)S(C)(=O)=O)nc(-c2ccc(F)cc2)c1/C=C/[C@@H](O)C[C@@H](O)CC(=O)O` [rosuvastatin], the lipophilicity entry in data set [1] is “relatively hydrophilic”. In addition, in data set [2], the “hearing status at follow-up: Mild (PTA >20, <40), number of ears” value stood at 14 No. Ears; the “hearing status at follow-up: Mild (PTA >20, <40), percent of ears” value was “(63.64) %”; the “hearing status at follow-up: Moderate (PTA ≥40, ≤70), number of ears” value turned out to be 6 No. Ears; the “hearing status at follow-up: Moderate (PTA ≥40, ≤70), percent of ears” value was “(27.27) %”. Besides, in data set [2], the “hearing status at follow-up: Normal (PTA ≤20), number of ears” value came out at 2 No. Ears; the “hearing status at follow-up: Normal (PTA ≤20), percent of ears” value was “(9.09) %”; the “hearing status at follow-up: Profound (PTA ≥95), number of ears” value turned out to be 0 No. Ears; the “hearing status at follow-up: Severe (PTA >70, <95), number of ears” value stood at 0 No. Ears. In addition, the “metabolism by the cytochrome P(450) system” value in data set [3] is listed as “not significantly metabolized”. In data set [4], the hepatoselectivity entry is listed as “greater hepatoselectivity”. Also, the “effectiveness for reducing low-density lipoprotein cholesterol” value in data set [5] was “most effective”.

With `N.N.[Cl][Pt][Cl]` [cisplatin], the “high-frequency threshold shift after cisplatin therapy” value in data set [6] was determined as 13.7 dB. Also, in data set [7], the “individuals with clinically meaningful hearing loss after cisplatin therapy, TUNE criteria” value is on record as “up to 53%”.
